Experimental data from the NIST ThermoML archive (doi:10.1021/acs.jced.8b00310).
Numbers after ± are expanded uncertainties.

Test: molar heat capacity at constant pressure
Settings: Gas, Flow calorimetry

Structure (SMILES): FC(F)C(F)(F)F [pentafluoroethane]
- molar heat capacity at constant pressure (303.15 K, 1500 kPa): 129.62 ± 4.8 J/K/mol
- molar heat capacity at constant pressure (307.15 K, 1500 kPa): 123.62 ± 1.7 J/K/mol
- molar heat capacity at constant pressure (311.15 K, 1500 kPa): 121.1 ± 3.6 J/K/mol
- molar heat capacity at constant pressure (313.15 K, 1500 kPa): 121.58 ± 2.4 J/K/mol
- molar heat capacity at constant pressure (314.15 K, 2000 kPa): 147.63 ± 6 J/K/mol
- molar heat capacity at constant pressure (315.15 K, 2000 kPa): 145.71 ± 3.6 J/K/mol
- molar heat capacity at constant pressure (316.15 K, 2000 kPa): 145.35 ± 3.6 J/K/mol
- molar heat capacity at constant pressure (317.15 K, 2000 kPa): 144.27 ± 3.6 J/K/mol
- molar heat capacity at constant pressure (318.15 K, 2000 kPa): 143.43 ± 6 J/K/mol
- molar heat capacity at constant pressure (319.15 K, 2000 kPa): 140.18 ± 3.6 J/K/mol
- molar heat capacity at constant pressure (319.15 K, 2200 kPa): 158.55 ± 3.6 J/K/mol
- molar heat capacity at constant pressure (320.15 K, 2000 kPa): 138.38 ± 6 J/K/mol
- molar heat capacity at constant pressure (320.15 K, 2200 kPa): 159.03 ± 3.6 J/K/mol
- molar heat capacity at constant pressure (321.15 K, 2000 kPa): 139.7 ± 4.8 J/K/mol
- molar heat capacity at constant pressure (321.15 K, 2200 kPa): 156.99 ± 2.4 J/K/mol
- molar heat capacity at constant pressure (322.15 K, 2000 kPa): 135.62 ± 3.6 J/K/mol
- molar heat capacity at constant pressure (323.15 K, 2200 kPa): 153.75 ± 6 J/K/mol
- molar heat capacity at constant pressure (323.15 K, 2400 kPa): 173.91 ± 7.2 J/K/mol
- molar heat capacity at constant pressure (324.15 K, 2400 kPa): 168.03 ± 5.3 J/K/mol
- molar heat capacity at constant pressure (325.15 K, 2400 kPa): 161.31 ± 4.8 J/K/mol
- molar heat capacity at constant pressure (326.15 K, 2400 kPa): 159.03 ± 7.2 J/K/mol
- molar heat capacity at constant pressure (327.15 K, 2400 kPa): 157.47 ± 7.2 J/K/mol
- molar heat capacity at constant pressure (343.15 K, 500 kPa): 103.22 ± 3.6 J/K/mol
- molar heat capacity at constant pressure (343.15 K, 650 kPa): 105.62 ± 3.6 J/K/mol
- molar heat capacity at constant pressure (343.15 K, 1000 kPa): 108.26 ± 2.4 J/K/mol
- molar heat capacity at constant pressure (343.15 K, 1500 kPa): 115.7 ± 2.4 J/K/mol
- molar heat capacity at constant pressure (343.15 K, 2000 kPa): 123.14 ± 2.3 J/K/mol
- molar heat capacity at constant pressure (343.15 K, 2200 kPa): 128.3 ± 2.4 J/K/mol
- molar heat capacity at constant pressure (343.15 K, 2400 kPa): 134.42 ± 2.3 J/K/mol
